Reference: ChEMBL document CHEMBL5325437, “Shifting the selectivity of pyrido[2,3-d]pyrimidin-7(8H)-one inhibitors towards the salt-inducible kinase (SIK) subfamily” (Eur J Med Chem, 2023)
Calls of active or inactive are those of the source. The calls are words filed in the database; no cut-off is given here.

What was measured:
[1] = biological target: Serine/threonine-protein kinase PAK 1 (Homo sapiens) (UniProt Q13153); assay: Binding affinity to recombinant PAK1 (unknown origin) assessed as stabilization by measuring change in melting temperature at 10 uM by SYPRO orange dye based differential scanning fluorimetry assay
Chain of Serine/threonine-protein kinase PAK 1 (Homo sapiens) (Q13153 whole entry): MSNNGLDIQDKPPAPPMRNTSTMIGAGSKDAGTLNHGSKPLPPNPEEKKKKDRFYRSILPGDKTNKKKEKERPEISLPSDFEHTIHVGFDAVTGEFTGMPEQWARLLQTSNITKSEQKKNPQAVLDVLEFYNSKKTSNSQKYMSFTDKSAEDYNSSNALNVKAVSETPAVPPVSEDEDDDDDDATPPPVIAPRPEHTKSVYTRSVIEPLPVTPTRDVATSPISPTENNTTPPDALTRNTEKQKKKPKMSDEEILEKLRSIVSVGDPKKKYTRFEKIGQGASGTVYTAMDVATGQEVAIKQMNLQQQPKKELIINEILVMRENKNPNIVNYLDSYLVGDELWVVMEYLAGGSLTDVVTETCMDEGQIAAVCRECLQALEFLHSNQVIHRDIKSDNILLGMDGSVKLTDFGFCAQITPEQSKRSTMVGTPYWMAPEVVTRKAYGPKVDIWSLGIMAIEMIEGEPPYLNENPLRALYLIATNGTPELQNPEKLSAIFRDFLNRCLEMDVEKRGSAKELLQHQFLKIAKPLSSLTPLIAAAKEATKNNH

[2] = biological target: T1, Serine/threonine-protein kinase 4 (Homo sapiens) (UniProt Q13043); assay: Binding affinity to recombinant MST1 (unknown origin) assessed as stabilization by measuring change in melting temperature at 10 uM by SYPRO orange dye based differential scanning fluorimetry assay
T1 sequence (whole entry): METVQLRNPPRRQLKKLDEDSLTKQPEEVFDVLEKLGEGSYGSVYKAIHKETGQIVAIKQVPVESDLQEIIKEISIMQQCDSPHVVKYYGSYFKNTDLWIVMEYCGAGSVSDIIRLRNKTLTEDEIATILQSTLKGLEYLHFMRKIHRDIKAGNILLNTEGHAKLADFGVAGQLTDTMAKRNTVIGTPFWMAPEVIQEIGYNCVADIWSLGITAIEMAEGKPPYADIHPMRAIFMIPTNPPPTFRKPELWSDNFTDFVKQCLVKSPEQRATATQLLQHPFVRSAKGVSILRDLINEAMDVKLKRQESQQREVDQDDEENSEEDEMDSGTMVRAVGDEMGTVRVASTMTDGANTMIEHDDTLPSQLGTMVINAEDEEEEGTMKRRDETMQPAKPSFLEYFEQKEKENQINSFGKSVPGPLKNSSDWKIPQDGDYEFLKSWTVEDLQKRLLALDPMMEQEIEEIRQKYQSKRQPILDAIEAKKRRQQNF

[3] = biological target: Serine/threonine-protein kinase 24 (Homo sapiens) (UniProt Q9Y6E0); assay: Binding affinity to recombinant MST3 (unknown origin) assessed as stabilization by measuring change in melting temperature at 10 uM by SYPRO orange dye based differential scanning fluorimetry assay
Chain of Serine/threonine-protein kinase 24 (Homo sapiens) (Q9Y6E0 whole entry, looked up, the tested form may be a part): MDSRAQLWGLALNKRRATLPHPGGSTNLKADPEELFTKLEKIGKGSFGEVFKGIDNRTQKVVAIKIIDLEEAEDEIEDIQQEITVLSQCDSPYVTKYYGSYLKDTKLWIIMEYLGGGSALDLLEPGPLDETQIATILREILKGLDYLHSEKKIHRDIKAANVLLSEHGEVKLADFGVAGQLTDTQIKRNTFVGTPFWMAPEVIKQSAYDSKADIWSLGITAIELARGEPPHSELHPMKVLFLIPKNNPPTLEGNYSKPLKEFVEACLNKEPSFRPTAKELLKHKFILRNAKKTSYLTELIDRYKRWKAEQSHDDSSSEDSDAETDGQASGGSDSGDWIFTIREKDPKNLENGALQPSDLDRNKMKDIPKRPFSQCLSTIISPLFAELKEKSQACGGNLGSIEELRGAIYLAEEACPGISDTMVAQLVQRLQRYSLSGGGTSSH

[4] = biological target: Serine/threonine-protein kinase SIK1 (Homo sapiens, UniProt P57059); assay: Inhibition of full length NanoLuc fused SIK1 (unknown origin) transfected in HEK293T cells using NanoBRET NanoGlo substrate incubated for 2 hrs in presence of tracer by NanoBRET assay; assay type: cell-based
Chain of Serine/threonine-protein kinase SIK1 (P57059 whole entry, the tested form may be a part): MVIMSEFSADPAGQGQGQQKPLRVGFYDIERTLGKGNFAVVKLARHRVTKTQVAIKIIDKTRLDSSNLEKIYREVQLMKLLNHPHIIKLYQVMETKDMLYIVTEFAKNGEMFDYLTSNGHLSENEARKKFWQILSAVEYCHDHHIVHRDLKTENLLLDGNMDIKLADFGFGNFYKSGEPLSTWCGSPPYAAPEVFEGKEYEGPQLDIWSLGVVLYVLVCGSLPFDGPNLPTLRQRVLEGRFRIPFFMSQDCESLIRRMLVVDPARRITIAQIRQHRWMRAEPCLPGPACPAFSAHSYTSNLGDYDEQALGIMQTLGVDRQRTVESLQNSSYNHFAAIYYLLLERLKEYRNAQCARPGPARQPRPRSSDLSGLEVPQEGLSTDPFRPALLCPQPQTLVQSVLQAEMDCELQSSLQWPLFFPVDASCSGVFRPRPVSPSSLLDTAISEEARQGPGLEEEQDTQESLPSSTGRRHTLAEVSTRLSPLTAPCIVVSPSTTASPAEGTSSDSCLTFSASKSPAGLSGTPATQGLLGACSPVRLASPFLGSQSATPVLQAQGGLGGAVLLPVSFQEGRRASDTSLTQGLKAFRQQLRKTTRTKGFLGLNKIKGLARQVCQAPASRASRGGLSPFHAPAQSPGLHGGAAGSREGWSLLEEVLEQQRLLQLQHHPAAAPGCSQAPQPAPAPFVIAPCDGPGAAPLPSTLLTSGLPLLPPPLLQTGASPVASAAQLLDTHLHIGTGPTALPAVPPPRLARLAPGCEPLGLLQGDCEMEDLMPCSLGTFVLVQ

[5] = biological target: T2, Serine/threonine-protein kinase 3 (Homo sapiens) (UniProt Q13188); assay: Binding affinity to recombinant MST2 (unknown origin) assessed as stabilization by measuring change in melting temperature at 10 uM by SYPRO orange dye based differential scanning fluorimetry assay
T2 sequence (whole entry): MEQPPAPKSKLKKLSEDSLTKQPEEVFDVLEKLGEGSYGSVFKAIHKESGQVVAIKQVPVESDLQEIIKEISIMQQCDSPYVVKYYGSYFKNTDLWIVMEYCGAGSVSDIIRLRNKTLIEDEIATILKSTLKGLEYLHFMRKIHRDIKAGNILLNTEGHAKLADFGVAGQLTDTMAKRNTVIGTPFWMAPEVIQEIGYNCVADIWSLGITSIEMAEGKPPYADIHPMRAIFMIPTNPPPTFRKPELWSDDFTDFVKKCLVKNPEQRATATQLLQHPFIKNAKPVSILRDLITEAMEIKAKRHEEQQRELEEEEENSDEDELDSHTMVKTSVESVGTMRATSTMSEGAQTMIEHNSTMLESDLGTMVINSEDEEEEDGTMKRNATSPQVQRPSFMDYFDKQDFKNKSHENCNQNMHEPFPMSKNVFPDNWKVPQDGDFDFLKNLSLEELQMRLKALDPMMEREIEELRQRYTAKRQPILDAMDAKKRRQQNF

[6] = biological target: Serine/threonine-protein kinase 26 (Homo sapiens) (UniProt Q9P289); assay: Binding affinity to recombinant MST4 (unknown origin) assessed as stabilization by measuring change in melting temperature at 10 uM by SYPRO orange dye based differential scanning fluorimetry assay
Chain of Serine/threonine-protein kinase 26 (Homo sapiens) (Q9P289 2-416 limits assumed): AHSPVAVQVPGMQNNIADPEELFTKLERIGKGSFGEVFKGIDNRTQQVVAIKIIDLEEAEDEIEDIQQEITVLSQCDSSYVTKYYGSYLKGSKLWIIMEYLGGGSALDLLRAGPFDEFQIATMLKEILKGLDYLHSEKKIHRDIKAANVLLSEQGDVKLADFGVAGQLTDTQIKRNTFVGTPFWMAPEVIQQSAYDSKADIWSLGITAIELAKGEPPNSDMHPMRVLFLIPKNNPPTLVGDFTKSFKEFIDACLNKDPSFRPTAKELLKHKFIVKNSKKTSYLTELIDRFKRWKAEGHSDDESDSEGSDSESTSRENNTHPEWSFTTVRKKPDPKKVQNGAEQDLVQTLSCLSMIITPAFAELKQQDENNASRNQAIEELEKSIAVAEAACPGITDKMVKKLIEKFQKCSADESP

[7] = biological target: Serine/threonine-protein kinase SIK2 (Homo sapiens) (UniProt Q9H0K1); assay: Inhibition of recombinant human GST-tagged SIK2 assessed as downregulation of SIK2 phosphorylation at Ser358 incubated for 30 mins by Western blotting analysis
Chain of Serine/threonine-protein kinase SIK2 (Homo sapiens) (Q9H0K1 whole entry, looked up): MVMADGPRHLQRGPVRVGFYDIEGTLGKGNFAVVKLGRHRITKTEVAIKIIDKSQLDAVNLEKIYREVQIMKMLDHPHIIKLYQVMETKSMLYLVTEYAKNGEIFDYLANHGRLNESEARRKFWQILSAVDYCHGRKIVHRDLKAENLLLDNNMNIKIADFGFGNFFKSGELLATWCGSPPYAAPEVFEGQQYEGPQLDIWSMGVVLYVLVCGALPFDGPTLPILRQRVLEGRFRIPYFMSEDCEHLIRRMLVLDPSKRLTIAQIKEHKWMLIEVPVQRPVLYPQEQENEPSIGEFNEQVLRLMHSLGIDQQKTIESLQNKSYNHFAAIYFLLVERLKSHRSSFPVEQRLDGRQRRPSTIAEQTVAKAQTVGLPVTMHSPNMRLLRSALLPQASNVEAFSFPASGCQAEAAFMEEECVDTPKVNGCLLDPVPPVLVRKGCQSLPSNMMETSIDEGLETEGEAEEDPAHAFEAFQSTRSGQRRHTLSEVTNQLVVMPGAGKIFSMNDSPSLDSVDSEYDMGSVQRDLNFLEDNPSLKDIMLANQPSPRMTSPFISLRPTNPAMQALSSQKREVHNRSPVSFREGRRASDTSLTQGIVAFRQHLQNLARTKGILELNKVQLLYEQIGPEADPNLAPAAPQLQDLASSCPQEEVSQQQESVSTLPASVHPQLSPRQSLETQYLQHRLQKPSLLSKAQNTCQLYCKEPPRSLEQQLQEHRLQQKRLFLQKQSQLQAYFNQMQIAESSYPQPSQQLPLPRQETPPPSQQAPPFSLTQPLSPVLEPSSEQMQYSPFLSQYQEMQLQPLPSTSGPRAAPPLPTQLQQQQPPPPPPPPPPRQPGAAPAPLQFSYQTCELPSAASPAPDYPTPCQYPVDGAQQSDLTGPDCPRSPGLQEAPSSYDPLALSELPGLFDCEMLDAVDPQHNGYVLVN

[8] = biological target: Serine/threonine-protein kinase SIK2 (Homo sapiens) (UniProt Q9H0K1); assay: Inhibition of recombinant human GST-tagged SIK2 assessed as downregulation of SIK2 phosphorylation at Ser358 a 5 uM incubated for 30 mins by Western blotting analysis
[9] = biological target: Serine/threonine-protein kinase SIK2 (Homo sapiens) (UniProt Q9H0K1); assay: Inhibition of SIK2 in human SK-OV-3 cells assessed as decrease in centrosome dissociation in G2 phase at 5 uM incubated for 48 hrs by immunofluorescence assay; assay type: cell-based
[10] = test system: SK-OV-3; assay: Induction of cell cycle arrest in human SK-OV-3 cells assessed as accumulation of cells at G1 phase at 5 uM incubated for 24 hrs by flow cytometry (reference value: 34%); assay type: functional
[11] = test system: SK-OV-3; assay: Induction of cell cycle arrest in human SK-OV-3 cells assessed as accumulation of cells at S phase at 5 uM incubated for 24 hrs by flow cytometry (reference value: 32%); assay type: functional
[12] = biological target: Serine/threonine-protein kinase SIK2 (Homo sapiens) (UniProt Q9H0K1); assay: Inhibition of SIK2 in human SK-OV-3 cells assessed as downregulation of AKT phosphorylation at Ser473 at 5 uM incubated for 48 hrs by Western blotting analysis; assay type: cell-based
[13] = test system: HCT-116; assay: Cytotoxicity against human HCT-116 cells assessed as reduction in cell count at 1 uM incubated for >60 hrs by Hoechst-33342 staining high-content imaging analysis; assay type: toxicity, cell-based; conditions: hct-116, 60 h
[14] = test system: HCT-116; assay: Cytotoxicity against human HCT-116 cells assessed as decrease in cell viability at 10 uM incubated for 24 hrs by Hoechst-33342 staining high-content imaging analysis; assay type: toxicity, cell-based; conditions: hct-116, 24 h
[15] = test system: SK-OV-3; assay: Induction of cell cycle arrest in human SK-OV-3 cells assessed as accumulation of cells at G2 phase at 5 uM incubated for 24 hrs by flow cytometry (reference value: 24%); assay type: functional
[16] = test system: HCT-116; assay: Cytotoxicity against human HCT-116 cells assessed as effect on cell viability at 1 uM incubated for 80 hrs by Hoechst-33342 staining high-content imaging analysis; assay type: toxicity, cell-based; conditions: hct-116, 80 h
[17] = biological target: Mitogen-activated protein kinase kinase kinase 20 (Homo sapiens, UniProt Q9NYL2); assay: Inhibition of full-length human ZAK using MBP as substrate in presence off ATP by competitive binding assay
Chain of Mitogen-activated protein kinase kinase kinase 20 (Q9NYL2 whole entry): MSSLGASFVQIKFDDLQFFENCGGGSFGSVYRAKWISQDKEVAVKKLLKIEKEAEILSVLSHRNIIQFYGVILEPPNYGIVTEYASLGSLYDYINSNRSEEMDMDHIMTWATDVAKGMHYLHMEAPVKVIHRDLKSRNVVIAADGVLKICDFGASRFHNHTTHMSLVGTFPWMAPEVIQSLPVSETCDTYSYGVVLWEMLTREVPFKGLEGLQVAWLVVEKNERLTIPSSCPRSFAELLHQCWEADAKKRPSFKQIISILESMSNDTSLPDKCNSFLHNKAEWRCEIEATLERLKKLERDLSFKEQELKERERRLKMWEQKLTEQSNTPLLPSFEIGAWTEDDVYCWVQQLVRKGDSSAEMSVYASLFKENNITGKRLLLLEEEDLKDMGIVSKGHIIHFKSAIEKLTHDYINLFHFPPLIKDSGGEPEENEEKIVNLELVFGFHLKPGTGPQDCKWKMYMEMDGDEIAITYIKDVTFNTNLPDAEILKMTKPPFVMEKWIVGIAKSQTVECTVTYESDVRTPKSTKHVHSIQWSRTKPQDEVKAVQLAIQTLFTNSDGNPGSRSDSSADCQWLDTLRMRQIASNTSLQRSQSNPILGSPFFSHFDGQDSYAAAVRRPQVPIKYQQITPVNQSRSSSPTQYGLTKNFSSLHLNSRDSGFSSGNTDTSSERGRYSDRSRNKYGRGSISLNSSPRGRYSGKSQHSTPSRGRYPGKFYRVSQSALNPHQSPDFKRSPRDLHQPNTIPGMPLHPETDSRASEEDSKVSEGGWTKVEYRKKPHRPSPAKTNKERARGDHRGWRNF

SMILES	ΔTm [1] [°C]	ΔTm [2] [°C]	ΔTm [3] [°C]	ΔTm [5] [°C]	ΔTm [6] [°C]	also measured
CN[C@@H]1C[C@H]2O[C@@](C)([C@@H]1OC)n1c3ccccc3c3c4c(c5c6ccccc6n2c5c31)C(=O)NC4	6.7	–	–	–	–	–
CNc1ncc2cc(-c3ccc(-c4cccc(C)n4)cc3Cl)c(=O)n(C[C@H]3OC[C@H](N)CO3)c2n1	–	4.2	8.5	–	–	IC50 [4]: 33 nM
CNc1ncc2cc(-c3cc(C(F)(F)F)ccc3Cl)c(=O)n(CCCCN)c2n1	0.2	0.9	0.2	0.8	0.4	–
CNc1ncc2cc(-c3cc(F)c(-c4cccc(C)n4)cc3F)c(=O)n(CCCCN)c2n1	3.6	2.8	9.7	5.2	7.6	–
CNc1ncc2cc(-c3cc(Br)ccc3Cl)c(=O)n(C[C@H]3OC[C@H](N)CO3)c2n1	0.6	1.7	0.8	1.5	0.6	–
CNc1ncc2cc(-c3ccccc3Cl)c(=O)n(CCCCN)c2n1	1.1	1.9	3.8	2.2	2.6	inhibition [7]: Dose-Dependent Effect; inhibition [8]: Active; inhibition [9]: Active; Activity [10]: 58%; Activity [11]: 6%; inhibition [12]: Active; Activity [13]: Toxic; Activity [14]: Toxic
CNc1ncc2cc(-c3ccc(-c4ncccc4F)cc3Cl)c(=O)n(C[C@H]3OC[C@H](N)CO3)c2n1	5.2	1.8	3.5	–	2.7	inhibition [7]: Dose-Dependent Effect; inhibition [8]: Active; inhibition [9]: Active; Activity [10]: 70%; Activity [15]: 13%; Activity [11]: 7%; inhibition [12]: Active; Activity [16]: Non-Toxic; Activity [14]: Toxic
CCCS(=O)(=O)Nc1ccc(F)c(C(=O)c2c[nH]c3ncc(-c4ccc(Cl)cc4)cc23)c1F [VEMURAFENIB]	–	–	–	–	–	IC50 [17]: 4 nM

Now from value to molecule, other results behind:

ΔTm [1] [°C]	ΔTm [2] [°C]	ΔTm [3] [°C]	ΔTm [5] [°C]	ΔTm [6] [°C]	SMILES	also measured
0.7	1.6	1.9	1.4	2	CNc1ncc2cc(-c3cc(Cl)ccc3Cl)c(=O)n(CCCCN)c2n1	–
0	1.9	2.7	2.5	2.2	CNc1ncc2cc(-c3cc(Br)ccc3Cl)c(=O)n(CCCCN)c2n1	–
0.6	1.5	2	1.4	1.8	CNc1ncc2cc(-c3cc(Cl)ccc3Br)c(=O)n(CCCCN)c2n1	–
0.7	1.6	1.9	1.4	1.5	CNc1ncc2cc(-c3cc(Br)ccc3Br)c(=O)n(CCCCN)c2n1	–
